# Laboratory results taken from BindingDB's records for doi:10.1021/jm00350a009 (1982).
# Assay: Compound was tested for inhibition of [3H]dihydroalprenolol radioligand binding to Beta-1 adrenergic receptor in dog heart.
row,Compound,IC50 [nM]
1,CC(C)(C)NC[C@H](O)CON=C1c2ccccc2-c2ccccc21,29
2,CC(C)(C)NC[C@@H](O)CON=C1c2ccccc2-c2ccccc21,43
3,Cc1ccc(OCC(O)CNC(C)C)c2c1CCC2 (centres undefined) [1-Isopropylamino-3-(7-methyl-indan-4-yloxy)-propan-2-ol],186
4,CC(C)(C)NCC(O)CON=C1c2ccccc2-c2ccccc21 (centres undefined) [Fluoren-9-one O-(3-tert-butylamino-2-hydroxy-propyl)-oxime],38
